# Experimental data as given in article PMC7188713, “Phase 1 study of napabucasin, a cancer stemness inhibitor, in patients with advanced solid tumors” (Cancer Chemotherapy and Pharmacology, 2020).
# Where two headings read alike, the source gives them in different places. Marks after values point to notes of the source that are not given here.
# Legend:
# [1] = tested on: NAD(P)H: quinone oxidoreductase-1; set-up: method as in PMID 31527169; conditions: results in redox cycling and ROS generation; cited from earlier work
# [2] = Plasma and urine pharmacokinetics of napabucasin in patients; type: in vivo, Japanese patients; conditions: for AUC(0-t) / AUC(0-inf) / Cmax / half-life / Tmax: human, oral; for AUC(0-t) / AUC(0-inf) / Cmax / half-life / Tmax / CL/F, range / CL/F, range (apparent total clearance at steady state): plasma; for AUC(0-inf): read-out: AUC0–∞, range; for Cmax: read-out: Cmax, range; for half-life: read-out: t1/2, range; for Tmax: read-out: tmax, range
# Experimental: Blood samples for PK were obtained on Days 1, 2, 8, and 15 of Cycle 1 and Days 29 and 30 of Cycle 2. On Day 1 of Cycle 1 and Day 29 of Cycle 2, blood samples were collected before the morning dose and at 2, 4, 6, 8, 10, 12, and 24 h after the morning dose of napabucasin; for samples collected 24 h following the morning dose of napabucasin on Day 1 and Day 29, collection occurred before the morning dose was administered on Day 2 and Day 30, respectively. On Days 8 and 15 of Cycle 1, blood samples were taken 168 and 336 h after the morning dose on Day 1. Urine samples were taken on Days 1 and 2 of Cycle 1 and Days 29 and 30 of Cycle 2. Samples were collected immediately after the morning dose on Days 1 and 29 through to immediately before the morning dose the next day. Plasma napabucasin concentration was measured by Frontage Laboratories and CMIC Pharma Science Co., Ltd and urine napabucasin concentration was measured by CMIC Pharma Science Co., Ltd.
# (§1) The safety and antitumor activity (intention-to-treat [ITT]) analysis populations included all patients that received at least one dose of napabucasin. The DLT analysis population included all patients that received at least one dose of napabucasin with at least 80% compliance ([number of capsules actually ingested/number of capsules that should have been ingested per dose […]] × 100) during the DLT evaluation period, and those patients who experienced DLT during the evaluation period regardless of compliance. The PK population included all patients that received at least one dose of napabucasin and had plasma napabucasin concentration data for at least one-time point after the first dose of napabucasin.
# [3] = tested on: advanced solid tumors; assay: Antitumor activity (RECIST 1.1 tumor response, PFS, OS, STAT3 SNP genotype); type: in vivo, Japanese patients
# Experimental: (§2) Assessments of antitumor activity were objective tumor response, median progression-free survival (PFS) and median overall survival (OS). Tumor response was evaluated according to RECIST 1.1 [21]. Median PFS was defined as the time from the day of the first dose of napabucasin to the date of progressive disease (PD), if neither was observed, the patient was to be censored at the last assessment of tumor response. Median OS was defined as the time from the first dose of napabucasin to the date of death from any cause. Patients who were still alive at the final observation were to be censored at the date they were last known to be alive. STAT3 single nucleotide polymorphism (SNP) genotyping was carried out using DNA extracted from whole blood samples to assess tumor response, median PFS, and median OS. Immunohistochemistry (IHC), mutation analysis (Oncomine Comprehensive Assay), and microsatellite instability analyses were performed in tumor tissue samples obtained from patients who provided additional consent to assess the relationship between specific biomarkers and the antitumor activity of napabucasin. IHC staining of phosphorylated STAT3 (pSTAT3) was carried out on archived tumor samples which were collected pre-treatment, and de novo lesions during and post-treatment were also collected, according to the protocol of a recent Phase 3 study. Positive pSTAT3 staining was defined as cancer cell nuclear staining ≥ 5% plus a stroma staining score of at least 2. The biomarker testing facility was responsible for IHC staining and storage of tumor samples. If consent to a genetic test was withdrawn, samples and associated analyses were discarded.
# as §1
# [4] = tested on: CSCs; set-up: method as in PMID 25605917; conditions: cited from earlier work
# [5] = tested on: colorectal cancer; set-up: method as in PMID 29397354; conditions: cited from earlier work
# [6] = tested on: prostate cancer cell; set-up: method as in PMID 26899963; conditions: in vitro; cited from earlier work
# [7] = tested on: phosphorylated STAT3 (pSTAT3); assay: pSTAT3 IHC staining of tumor samples; type: in vivo, Japanese patients; conditions: one colorectal cancer patient
# Experimental: as §2
# [8] = set-up: method as in doi:10.1200/JCO.2018.36.15_suppl.4110, doi:10.1200/JCO.2017.35.4_suppl.593; conditions: napabucasin 240 mg BID in combination with standard treatment; cited from earlier work
# [9] = tested on: advanced cancer; conditions: cited from earlier work
# [10] = 240 mg, Cycle 1 (Day 1), Cohort 1 (480 mg/day, 240 mg BID), n = 3
# [11] = 240 mg, Cycle 2 (Day 29), Cohort 1 (480 mg/day, 240 mg BID), n = 3
# [12] = 480 mg, Cycle 1 (Day 1), Cohort 2 (960 mg/day, 480 mg BID), n = 4
# [13] = 480 mg, Cycle 2 (Day 29), Cohort 2 (960 mg/day, 480 mg BID), n = 3
# [14] = 720 mg, Cycle 1 (Day 1), Cohort 3 (1440 mg/day, 720 mg BID), n = 7
# [15] = 720 mg, Cycle 2 (Day 29), Cohort 3 (1440 mg/day, 720 mg BID), n = 5
# [16] = Post-napabucasin: Day 26 from the first dose, treatment ongoing
smiles,measurement,setting,value
CC(=O)c1cc2c(o1)C(=O)c1ccccc1C2=O [napabucasin],Bioactivation,[1],bioactivated by NAD(P)H: quinone oxidoreductase-1
same,AUC(0-t),"[2]; 240 mg, Cycle 1 (Day 1), Cohort 1 (480 mg/day, 240 mg BID), n = 3, read-out: AUC0–12, range",1370 to 2990 ng·h/mL
same,AUC(0-t),"[2]; 240 mg, Cycle 1 (Day 1), Cohort 1 (480 mg/day, 240 mg BID), n = 3, read-out: AUC0–24, range",2020 to 3800 ng·h/mL
same,AUC(0-inf),[2]; [10],3650 to 4060 ng·h/mL
same,Cmax,[2]; [10],194 to 468 ng/mL
same,half-life,[2]; [10],5 to 25 h
same,Tmax,[2]; [10],4 to 6 h
same,AUC(0-t),"[2]; 240 mg, Cycle 2 (Day 29), Cohort 1 (480 mg/day, 240 mg BID), n = 3, read-out: AUC0–12, range",2190 to 4940 ng·h/mL
same,AUC(0-t),"[2]; 240 mg, Cycle 2 (Day 29), Cohort 1 (480 mg/day, 240 mg BID), n = 3, read-out: AUC0–24, range",2510 to 6180 ng·h/mL
same,AUC(0-inf),[2]; [11],2570 to 6370 ng·h/mL
same,Cmax,[2]; [11],472 to 652 ng/mL
same,half-life,[2]; [11],4 to 5 h
same,Tmax,[2]; [11],4 to 10 h
same,AUC(0-t),"[2]; 480 mg, Cycle 1 (Day 1), Cohort 2 (960 mg/day, 480 mg BID), n = 4, read-out: AUC0–12, range",984 to 4780 ng·h/mL
same,AUC(0-t),"[2]; 480 mg, Cycle 1 (Day 1), Cohort 2 (960 mg/day, 480 mg BID), n = 4, read-out: AUC0–24, range",1200 to 6360 ng·h/mL
same,AUC(0-inf),[2]; [12],1410 to 7360 ng·h/mL
same,Cmax,[2]; [12],199 to 719 ng/mL
same,half-life,[2]; [12],7 to 8 h
same,Tmax,[2]; [12],2 to 6 h
same,AUC(0-t),"[2]; 480 mg, Cycle 2 (Day 29), Cohort 2 (960 mg/day, 480 mg BID), n = 3, read-out: AUC0–12, range",2560 to 2760 ng·h/mL
same,AUC(0-t),"[2]; 480 mg, Cycle 2 (Day 29), Cohort 2 (960 mg/day, 480 mg BID), n = 3, read-out: AUC0–24, range",2750 to 2880 ng·h/mL
same,AUC(0-inf),[2]; [13],2750 to 2880 ng·h/mL
same,Cmax,[2]; [13],391 to 477 ng/mL
same,half-life,[2]; [13],2 to 3 h
same,Tmax,[2]; [13],2 to 10 h
same,AUC(0-t),"[2]; 720 mg, Cycle 1 (Day 1), Cohort 3 (1440 mg/day, 720 mg BID), n = 7, read-out: AUC0–12, range",3440 to 11000 ng·h/mL
same,AUC(0-t),"[2]; 720 mg, Cycle 1 (Day 1), Cohort 3 (1440 mg/day, 720 mg BID), n = 7, read-out: AUC0–24, range",3920 to 14500 ng·h/mL
same,AUC(0-inf),[2]; [14],3870 to 14800 ng·h/mL
same,Cmax,[2]; [14],641 to 2070 ng/mL
same,half-life,[2]; [14],3 to 12 h
same,Tmax,[2]; [14],2 to 6 h
same,AUC(0-t),"[2]; 720 mg, Cycle 2 (Day 29), Cohort 3 (1440 mg/day, 720 mg BID), n = 5, read-out: AUC0–12, range",3650 to 15400 ng·h/mL
same,AUC(0-t),"[2]; 720 mg, Cycle 2 (Day 29), Cohort 3 (1440 mg/day, 720 mg BID), n = 5, read-out: AUC0–24, range",4480 to 20200 ng·h/mL
same,AUC(0-inf),[2]; [15],4740 to 123000 ng·h/mL
same,Cmax,[2]; [15],596 to 1930 ng/mL
same,half-life,[2]; [15],5 to 192 h
same,Tmax,[2]; [15],2 to 4 h
same,Difference in Cmax and AUC0–12 between doses,"[2]; plasma, 480, 960, 1440 mg/day",no clear difference between doses
same,"CL/F, range","[2]; Cycle 1 (Day 1), Cohort 1 (480 mg/day, 240 mg BID), n = 3",59 to 66 L/h
same,"CL/F, range","[2]; Cycle 1 (Day 1), Cohort 2 (960 mg/day, 480 mg BID), n = 4",65 to 341 L/h
same,"CL/F, range","[2]; Cycle 1 (Day 1), Cohort 3 (1440 mg/day, 720 mg BID), n = 7",49 to 186 L/h
same,"CL/F, range (apparent total clearance at steady state)","[2]; Cycle 2 (Day 29), Cohort 1 (480 mg/day, 240 mg BID), n = 3",49–109^a L/h
same,"CL/F, range (apparent total clearance at steady state)","[2]; Cycle 2 (Day 29), Cohort 2 (960 mg/day, 480 mg BID), n = 3",174–188^a L/h
same,"CL/F, range (apparent total clearance at steady state)","[2]; Cycle 2 (Day 29), Cohort 3 (1440 mg/day, 720 mg BID), n = 5",47–197^a L/h
same,Accumulation in plasma,"[2]; repeated BID dosing, Cycle 1 to Cycle 2",no abnormal accumulation was observed
same,Difference in urinary PK between cohorts,"[2]; urine, 480, 960, 1440 mg/day",no clear differences were observed between cohorts
same,Median OS,[3]; Cohort 1 (480 mg/day),8.28 months
same,Median PFS,[3]; Cohort 1 (480 mg/day),1.87 months
same,Median OS,[3]; Cohort 2 (960 mg/day),5.03 months
same,Median PFS,[3]; Cohort 2 (960 mg/day),1.76 months
same,Median OS,[3]; Cohort 3 (1440 mg/day),5.68 months
same,Median PFS,[3]; Cohort 3 (1440 mg/day),1.45 months
same,Antitumor activity by STAT3 SNP genotype,"[3]; DNA from whole blood, G/G, C/C, C/G genotypes","no difference in antitumor activity between G/G, C/C, and C/G genotypes"
same,Median OS,[3]; ITT population,5.83 months
same,Median PFS,[3]; ITT population,1.71 months
same,Patients with progressive disease (PD),"[3]; RECIST 1.1, 14 patients",12 patients
same,Patients with stable disease (SD) as best overall tumor response,"[3]; RECIST 1.1, 14 patients, both colorectal cancer",two
same,Duration of SD,[3]; one patient in Cohort 1 (480 mg/day),56 days
same,Duration of SD,[3]; one patient in Cohort 3 (1440 mg/day),82 days
same,Proportion of patients who achieved SD,[3]; this study,14%
same,Selectivity for CSCs,[4],"selectively targets CSCs, leaving normal hematopoietic stem cells unaffected"
same,Patients who achieved SD,[5],12%
same,Effect on prostate cancer cells,[6],"inhibited prostate cancer cell survival, motility, and tumorigenesis in vitro"
same,pSTAT3 status,"[7]; post-napabucasin (during treatment), positive = nuclear staining ≥ 5% plus stroma score at least 2",positive
same,% Nuclear tumor positive (pSTAT3 IHC),[7]; [16],10%
same,H-score (pSTAT3 IHC),[7]; [16],15
same,Microenvironment % positive (pSTAT3 IHC),[7]; [16],50%
same,Microenvironment intensity (pSTAT3 IHC),[7]; [16],2
same,Percent nuclear tumor staining 0 (pSTAT3 IHC),[7]; [16],90%
same,Percent nuclear tumor staining 1 + (pSTAT3 IHC),[7]; [16],5%
same,Percent nuclear tumor staining 2 + (pSTAT3 IHC),[7]; [16],5%
same,Percent nuclear tumor staining 3 + (pSTAT3 IHC),[7]; [16],0%
same,DLTs,[8],no DLTs
same,Dose up to which napabucasin was well tolerated,"[9]; 14 cohorts, N = 41",up to 2000 mg/day
same,Patients with SD as the best response,[9]; Phase 1 dose-escalation study,65%
